In the test the test system is 293T-HRE-GFP-luc cells. Nature of the test: Cell-based reporter assay for IC50 determinations (HRE-luciferase, hypoxia). Particulars: 6 h, 6 hrs hypoxia (1% O2), luminescence. Put shortly:
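IC50s come from four-parameter logistic fits of luminescence. Compounds in 1:3 DMSO series were added to 293T-HRE-GFP-luc cells, 30 min normoxia preceding 6 hrs at 1% O2, 37° C; HRE-luciferase signal was then measured with Steadylite Plus reagent.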
(Reporter assays use an easily measured gene product as a stand-in for the process of interest.)
What is called IC50 is the concentration that gives 50% inhibition. `COCCOc1cccc(Cn2cc(-c3noc(-c4ccc(C(F)(F)F)cc4)n3)ccc2=O)c1` [Example 193, 1-{[3-(2-methoxyethoxy)phenyl]methyl}-5-{5-[4-(trifluoromethyl)phenyl]-1,2,4-oxadiazol-3-yl}-1,2-dihydropyridin-2-one] had an IC50 of under 100 nM.

As to `COCCOc1cccc(Cn2cc(-c3noc(-c4ccc(C#N)cc4)n3)ccc2=O)c1` [Example 194, 4-[3-(1-{[3-(2-methoxyethoxy)phenyl]methyl}-6-oxo-1,6-dihydropyridin-3-yl)-1,2,4-oxadiazol-5-yl]benzonitrile], the IC50 is under 100 nM.

On to `COCCOc1cccc(Cn2cc(-c3noc(-c4ccc(C(C)C)cc4)n3)ccc2=O)c1` [Example 195, 1-{[3-(2-methoxyethoxy)phenyl]methyl}-5-{5-[4-(propan-2-yl)phenyl]-1,2,4-oxadiazol-3-yl}-1,2-dihydropyridin-2-one], for which the IC50 is under 100 nM.

Compound `COCCOc1cccc(Cn2cc(-c3noc(-c4ccc(OC(C)C)cc4)n3)ccc2=O)c1` [Example 196, 1-{[3-(2-methoxyethoxy)phenyl]methyl}-5-{5-[4-(propan-2-yloxy)phenyl]-1,2,4-oxadiazol-3-yl}-1,2-dihydropyridin-2-one] gave an IC50 of 100 to 1000 nM.

For `COCCOc1cccc(Cn2cc(-c3noc(-c4ccc(OC(F)F)cc4)n3)ccc2=O)c1` [Example 197, 5-{5-[4-(difluoromethoxy)phenyl]-1,2,4-oxadiazol-3-yl}-1-{[3-(2-methoxyethoxy)phenyl]methyl}-1,2-dihydropyridin-2-one], the IC50 is under 100 nM.

`COCCOc1cccc(Cn2cc(-c3noc(-c4ccc(Cl)cc4)n3)ccc2=O)c1` [Example 198, 5-[5-(4-chlorophenyl)-1,2,4-oxadiazol-3-yl]-1-{[3-(2-methoxyethoxy)phenyl]methyl}-1,2-dihydropyridin-2-one]: the IC50 is under 100 nM.

In turn, `CNS(=O)(=O)c1ccc(-c2nc(-c3ccc(=O)n(Cc4cccc(OCCOC)c4)c3)no2)cc1` [Example 199, 4-[3-(1-{[3-(2-methoxyethoxy)phenyl]methyl}-6-oxo-1,6-dihydropyridin-3-yl)-1,2,4-oxadiazol-5-yl]-N-methylbenzene-1-sulfonamide] had an IC50 of 100 to 1000 nM.

With `COCCOc1cccc(Cn2cc(-c3noc(-c4ccc(N5CCOCC5)cc4)n3)ccc2=O)c1` [Example 200, 1-{[3-(2-methoxyethoxy)phenyl]methyl}-5-{5-[4-(morpholin-4-yl)phenyl]-1,2,4-oxadiazol-3-yl}-1,2-dihydropyridin-2-one], the concentration for half-maximal inhibition (IC50) is under 100 nM.

In turn, `COCCOc1cccc(Cn2cc(-c3noc(-c4ccc(CC#N)cc4)n3)ccc2=O)c1` [Example 201, 2-{4-[3-(1-{[3-(2-methoxyethoxy)phenyl]methyl}-6-oxo-1,6-dihydropyridin-3-yl)-1,2,4-oxadiazol-5-yl]phenyl}acetonitrile] displayed an IC50 of under 100 nM.

The compound `COCCOc1cccc(Cn2cc(-c3noc(-c4ccc(S(C)(=O)=O)cc4)n3)ccc2=O)c1` [Example 202, 5-[5-(4-methanesulfonylphenyl)-1,2,4-oxadiazol-3-yl]-1-{[3-(2-methoxyethoxy)phenyl]methyl}-1,2-dihydropyridin-2-one] yielded an IC50 of 100 to 1000 nM.

`COCCOc1cccc(Cn2cc(-c3noc(-c4ccc(OCC(F)(F)F)cc4)n3)ccc2=O)c1` [Example 203, 1-{[3-(2-methoxyethoxy)phenyl]methyl}-5-{5-[4-(2,2,2-trifluoroethoxy)phenyl]-1,2,4-oxadiazol-3-yl}-1,2-dihydropyridin-2-one] displayed an IC50 of under 100 nM.

Regarding `CS(=O)(=O)CCCOc1cccc(Cn2cc(-c3noc(-c4ccc(N5CCOCC5)cc4)n3)ccc2=O)c1` [Example 204, 1-{[3-(3-methanesulfonylpropoxy)phenyl]methyl}-5-{5-[4-(morpholin-4-yl)phenyl]-1,2,4-oxadiazol-3-yl}-1,2-dihydropyridin-2-one], the IC50 is under 100 nM.

In the case of `CS(=O)(=O)CCCOc1cccc(Cn2cc(-c3noc(-c4ccc(S(C)(=O)=O)cc4)n3)ccc2=O)c1` [Example 205, 5-[5-(4-methanesulfonylphenyl)-1,2,4-oxadiazol-3-yl]-1-{[3-(3-methanesulfonylpropoxy)phenyl]methyl}-1,2-dihydropyridin-2-one], the IC50 was under 100 nM.

In the case of `CC(C)Oc1ccc(-c2nc(-c3ccc(=O)n(Cc4cccc(OCCCS(C)(=O)=O)c4)c3)no2)cc1` [Example 206, 1-{[3-(3-methanesulfonylpropoxy)phenyl]methyl}-5-{5-[4-(propan-2-yloxy)phenyl]-1,2,4-oxadiazol-3-yl}-1,2-dihydropyridin-2-one], the IC50 was under 100 nM.

Consider `CS(=O)(=O)CCCOc1cccc(Cn2cc(-c3noc(-c4ccc(OC(F)F)cc4)n3)ccc2=O)c1` [Example 207], for which the IC50 is under 100 nM.

In turn, `COCCOc1cccc(Cn2cc(-c3noc(-c4ccc(C(C)=O)cc4)n3)ccc2=O)c1` [Example 208, 5-[5-(4-acetylphenyl)-1,2,4-oxadiazol-3-yl]-1-{[3-(2-methoxyethoxy)phenyl]methyl}-1,2-dihydropyridin-2-one] showed an IC50 of under 100 nM.

`COCCOc1cccc(Cn2cc(-c3noc(-c4ccc(C5=CCSCC5)cc4)n3)ccc2=O)c1` [Example 209, 5-{5-[4-(3,6-dihydro-2H-thiopyran-4-yl)phenyl]-1,2,4-oxadiazol-3-yl}-1-{[3-(2-methoxyethoxy)phenyl]methyl}-1,2-dihydropyridin-2-one] yielded an IC50 of under 100 nM.

Turning to `CC(C)c1ccc(-c2nc(-c3ccc(=O)n(Cc4cccc(OCCCS(C)(=O)=O)c4)c3)no2)cc1` [Example 210, 1-{[3-(3-methanesulfonylpropoxy)phenyl]methyl}-5-{5-[4-(propan-2-yl)phenyl]-1,2,4-oxadiazol-3-yl}-1,2-dihydropyridin-2-one], the IC50 was under 100 nM.

On to `CS(=O)(=O)CCCOc1cccc(Cn2cc(-c3noc(-c4ccc(S(=O)(=O)C(F)(F)F)cc4)n3)ccc2=O)c1` [Example 211, 1-{[3-(3-methanesulfonylpropoxy)phenyl]methyl}-5-[5-(4-trifluoromethanesulfonylphenyl)-1,2,4-oxadiazol-3-yl]-1,2-dihydropyridin-2-one], for which the IC50 was under 100 nM.

Take `COCCOc1cccc(Cn2cc(-c3noc(-c4ccc(C5=CCOCC5)cc4)n3)ccc2=O)c1` [Example 212, 5-{5-[4-(3,6-dihydro-2H-pyran-4-yl)phenyl]-1,2,4-oxadiazol-3-yl}-1-{[3-(2-methoxyethoxy)phenyl]methyl}-1,2-dihydropyridin-2-one]: the concentration for half-maximal inhibition (IC50) is under 100 nM.

The compound `CC(C)(O)c1cccc(Cn2cc(-c3noc(-c4ccc(S(=O)(=O)C(F)(F)F)cc4)n3)ccc2=O)c1` [Example 213, 1-{[3-(2-hydroxypropan-2-yl)phenyl]methyl}-5-[5-(4-trifluoromethanesulfonylphenyl)-1,2,4-oxadiazol-3-yl]-1,2-dihydropyridin-2-one] gave an IC50 of under 100 nM.

In turn, `CC(C)(O)c1cccc(Cn2cc(-c3noc(-c4ccc(C5CCOCC5)cc4)n3)ccc2=O)c1` [Example 214, 1-{[3-(2-hydroxypropan-2-yl)phenyl]methyl}-5-{5-[4-(oxan-4-yl)phenyl]-1,2,4-oxadiazol-3-yl}-1,2-dihydropyridin-2-one] yielded a 50% inhibitory concentration (IC50) of under 100 nM.

Take `COCCOc1cccc(Cn2cc(-c3nc(-c4ccc(C5(O)CCOCC5)cc4)no3)ccc2=O)c1` [Example 215, 5-{3-[4-(4-hydroxyoxan-4-yl)phenyl]-1,2,4-oxadiazol-5-yl}-1-{[3-(2-methoxyethoxy)phenyl]methyl}-1,2-dihydropyridin-2-one]: the IC50 lay within 100 to 1000 nM.

With `COCCOc1cccc(Cn2cc(-c3noc(-c4ccc(S(=O)(=O)N(C)C)cc4)n3)ccc2=O)c1` [Example 216, 4-[3-(1-{[3-(2-methoxyethoxy)phenyl]methyl}-6-oxo-1,6-dihydropyridin-3-yl)-1,2,4-oxadiazol-5-yl]-N,N-dimethylbenzene-1-sulfonamide], the IC50 was in the range of 100 to 1000 nM.

Take `COCCOc1cccc(Cn2cc(-c3noc(-c4ccc(S(=O)(=O)NC(C)C)cc4)n3)ccc2=O)c1` [Example 217, 4-[3-(1-{[3-(2-methoxyethoxy)phenyl]methyl}-6-oxo-1,6-dihydropyridin-3-yl)-1,2,4-oxadiazol-5-yl}-N-(propan-2-yl)benzene-1-sulfonamide]: the IC50 was in the range of 100 to 1000 nM.

Regarding `COCCOc1cccc(Cn2cc(-c3noc(-c4ccc(C(=O)N(C)C)cc4)n3)ccc2=O)c1` [Example 218, 4-[3-(1-{[3-(2-methoxyethoxy)phenyl]methyl}-6-oxo-1,6-dihydropyridin-3-yl)-1,2,4-oxadiazol-5-yl]-N,N-dimethylbenzamide], the IC50 was 100 to 1000 nM.

Regarding `COCCOc1cccc(Cn2cc(-c3noc(-c4ccc(C(=O)N5CCCC5)cc4)n3)ccc2=O)c1` [Example 219, 1-{[3-(2-methoxyethoxy)phenyl]methyl}-5-{5-[4-(pyrrolidine-1-carbonyl)phenyl]-1,2,4-oxadiazol-3-yl}-1,2-dihydropyridin-2-one], the IC50 lay in the range of 100 to 1000 nM.

In turn, `COCCOc1cccc(Cn2cc(-c3noc(-c4ccc(CO)cc4)n3)ccc2=O)c1` [Example 220, 5-{5-[4-(hydroxymethyl)phenyl]-1,2,4-oxadiazol-3-yl}-1-{[3-(2-methoxyethoxy)phenyl]methyl}-1,2-dihydropyridin-2-one] returned a half-maximal inhibitory concentration (IC50) of 100 to 1000 nM.

In the case of `COCCOc1cccc(Cn2cc(-c3noc(-c4ccc(S(=O)(=O)C(F)F)cc4)n3)ccc2=O)c1` [Example 221, 5-[5-(4-difluoromethanesulfonylphenyl)-1,2,4-oxadiazol-3-yl]-1-{[3-(2-methoxyethoxy)phenyl]methyl}-1,2-dihydropyridin-2-one], the IC50 is under 100 nM.

Compound `COCCOc1cccc(Cn2cc(-c3noc(-c4ccc(C)c(C)c4)n3)ccc2=O)c1` [Example 222, 5-[5-(3,4-dimethylphenyl)-1,2,4-oxadiazol-3-yl]-1-{[3-(2-methoxyethoxy)phenyl]methyl}-1,2-dihydropyridin-2-one] gave an IC50 of 100 to 1000 nM.

Compound `COCCOc1cccc(Cn2cc(-c3noc(-c4ccc5c(c4)OCO5)n3)ccc2=O)c1` [Example 223, 5-[5-(2H-1,3-benzodioxol-5-yl)-1,2,4-oxadiazol-3-yl]-1-{[3-(2-methoxyethoxy)phenyl]methyl}-1,2-dihydropyridin-2-one] showed an IC50 of 100 to 1000 nM.

These data come from US20140073634A1 (Institute For Applied Cancer Science/The University of …, priority 2012, published 2014).
